Reference: ChEMBL document CHEMBL1201862, “PubChem BioAssay data set” (2004)
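Protocol summary: plate cells (96-well), add compound at 5 concentrations, incubate 48 h, interpolate endpoints linearly. At the GI50, growth is halved.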 Active and inactive are the calls of the source. Rule as the data show it: active = GI50 up to about 1.1 µM and inactive = higher.

What was measured:
Test in all cases: NCI tumour cell line growth inhibition, 48 h
[1] = tested on: MDA-MB-435
[2] = tested on: SF-268
[3] = tested on: RXF 393
[4] = tested on: HL-60
[5] = tested on: T47D
[6] = tested on: IGROV-1
[7] = tested on: RPMI-8226
[8] = tested on: MDA-MB-231
[9] = tested on: SNB-75
[10] = tested on: SW-620
[11] = tested on: EKVX
[12] = tested on: COLO 205
[13] = tested on: ACHN
[14] = tested on: TK-10
[15] = tested on: NCI-H226
[16] = tested on: HT-29
[17] = tested on: SR
[18] = tested on: NCI/ADR-RES

Measured: GI50

CN1CCN(c2ccc3c(c2)NCC(=O)N3)CC1
inactive: [1] > 100 µM | [2] > 100 µM | [3] > 100 µM | [4] > 100 µM | [5] > 100 µM | [6] > 100 µM | [7] > 100 µM | [8] > 100 µM | [9] > 100 µM | [10] > 100 µM | [11] 96.4 µM | [12] > 100 µM | [13] > 100 µM | [14] > 100 µM | [15] > 100 µM | [16] > 100 µM | [17] > 100 µM | [18] > 100 µM

CCc1nc2cc3cccnc3c(Cl)c2[nH]c1=O
inactive: [1] > 100 µM | [2] > 100 µM | [3] 31.8 µM | [4] > 100 µM | [5] 63.4 µM | [6] 71 µM | [7] > 100 µM | [8] > 100 µM | [9] 17.8 µM | [10] > 100 µM | [11] > 100 µM | [12] > 100 µM | [13] 78.7 µM | [14] 89.5 µM | [15] > 100 µM | [16] > 100 µM | [17] > 100 µM | [18] 79.1 µM

Cc1cc(N(CCC#N)CCC#N)ccc1C(/N=N/c1ccc(Cl)cc1)=N\NC(=O)c1ccccc1
inactive: [1] 5.62 µM | [2] 41.9 µM | [3] 49.2 µM | [4] 25.5 µM | [5] 24.5 µM | [6] 24.5 µM | [7] 54.2 µM | [8] 34.6 µM | [9] 49.5 µM | [11] 37.9 µM | [12] 27.6 µM | [13] 82 µM | [14] 60.5 µM | [15] 31.3 µM | [16] 20.5 µM | [17] 9.59 µM | [18] 27.4 µM

COc1cc2ccccc2c2cc([N+](=O)[O-])oc12
active: [1] 0.214 µM | [2] 0.537 µM | [3] 0.207 µM | [7] 0.619 µM | [8] 0.655 µM | [10] 0.893 µM | [12] 0.379 µM | [13] 0.174 µM | [14] 0.173 µM | [15] 1.11 µM | [16] 0.406 µM | [17] 0.0859 µM
inactive: [4] 5.26 µM | [5] 5.36 µM | [6] 1.25 µM | [9] 2.62 µM | [11] 4.19 µM | [18] 1.43 µM

CC1CC(C)(O)CC(C(O)CC2CC(=O)NC(=O)C2)C1=O (stereo unspecified) [RESACTIN A]
active: [1] 0.0432 µM | [2] 0.0455 µM | [3] 0.0344 µM | [4] 0.0392 µM | [5] 0.0431 µM | [6] 0.0292 µM | [7] 0.0456 µM | [8] < 0.01 µM | [9] 0.0225 µM | [10] 0.0294 µM | [11] 0.0505 µM | [12] 0.0381 µM | [13] 0.0224 µM | [14] 0.187 µM | [15] 0.0689 µM | [16] 0.037 µM | [17] 0.0251 µM | [18] 0.232 µM

Cc1ccc(CN2CCN(Cc3ccc(C)o3)C(C)C2)o1 (stereo unspecified)
inactive: [1] > 100 µM | [2] > 100 µM | [3] > 100 µM | [4] > 100 µM | [5] > 100 µM | [6] > 100 µM | [7] > 100 µM | [8] > 100 µM | [9] > 100 µM | [10] > 100 µM | [11] > 100 µM | [12] > 100 µM | [13] > 100 µM | [14] > 100 µM | [15] > 100 µM | [16] > 100 µM | [17] > 100 µM | [18] > 100 µM

O=c1[nH]c(=S)[nH]n1C(=S)n1[nH]c(=S)[nH]c1=O
inactive: [1] > 100 µM | [2] > 100 µM | [3] > 100 µM | [4] 45.2 µM | [5] > 100 µM | [6] > 100 µM | [7] 89.1 µM | [8] > 100 µM | [9] > 100 µM | [10] > 100 µM | [11] > 100 µM | [12] > 100 µM | [13] > 100 µM | [14] > 100 µM | [15] > 100 µM | [16] > 100 µM | [17] 41.4 µM | [18] > 100 µM

CCN(CC)C(=O)CCN1CC1
inactive: [1] > 10 µM | [2] > 10 µM | [3] > 10 µM | [4] > 10 µM | [5] > 10 µM | [6] > 10 µM | [7] > 10 µM | [8] > 10 µM | [9] > 10 µM | [11] > 10 µM | [12] > 10 µM | [13] > 10 µM | [14] > 10 µM | [15] > 10 µM | [16] > 10 µM | [17] > 10 µM | [18] > 10 µM

C/C(=N\NC(=S)N(C)CCN(C)C(=S)N/N=C(\C)c1ccccn1)c1ccccn1
active: [2] 0.321 µM | [3] 0.0843 µM | [4] 0.365 µM | [6] 0.465 µM | [8] 0.246 µM | [9] 0.56 µM | [10] 0.662 µM | [12] 0.247 µM | [13] 0.366 µM | [14] 0.47 µM | [15] 0.316 µM | [16] 0.224 µM | [17] 0.697 µM | [18] 0.346 µM
inactive: [1] > 100 µM | [5] 1.84 µM | [7] 1.37 µM | [11] 1.73 µM

COc1cc([N+](=O)[O-])ccc1NC1=CC(=O)CCC1
inactive: [1] > 100 µM | [2] > 100 µM | [3] > 100 µM | [4] > 100 µM | [5] > 100 µM | [6] > 100 µM | [7] > 100 µM | [8] > 100 µM | [9] 27.6 µM | [10] > 100 µM | [11] > 100 µM | [12] > 100 µM | [13] > 100 µM | [14] > 100 µM | [15] > 100 µM | [16] > 100 µM | [17] > 100 µM | [18] > 100 µM

Oc1cc(Cl)cc2cccnc12
inactive: [1] 3.52 µM | [3] 3.02 µM | [5] 2.25 µM | [8] 2.19 µM | [9] 17.2 µM | [10] 1.65 µM | [12] 6.65 µM | [13] 1.38 µM | [14] 57.5 µM | [15] 6.79 µM | [16] 9.31 µM
active: [2] 0.296 µM | [4] 0.229 µM | [6] 0.986 µM | [7] 0.601 µM | [11] 0.804 µM | [17] 0.449 µM | [18] 0.354 µM

COc1ccc2ccccc2c1/C=C/C(=O)c1ccccc1
inactive: [1] 2.53 µM | [2] 2.7 µM | [3] 1.33 µM | [4] 1.7 µM | [5] 2.43 µM | [6] 4.03 µM | [7] 1.44 µM | [8] 2.66 µM | [10] 2.54 µM | [11] 3.61 µM | [12] 3.25 µM | [13] 3.33 µM | [14] 2.59 µM | [15] 3.1 µM | [16] 3.43 µM | [18] 3.01 µM
active: [9] 1.08 µM | [17] 1.06 µM

Cn1c(CO)ccc1-c1ccc(-c2ccc(CO)[se]2)[se]1
inactive: [1] 3.08 µM | [2] > 78.5 µM | [3] > 26.2 µM | [4] 7.91 µM | [5] 11.9 µM | [7] 2.39 µM | [8] 21.2 µM | [9] > 100 µM | [10] 1.58 µM | [11] 48.1 µM | [12] 1.77 µM | [13] 19.3 µM | [16] 37.7 µM | [17] 13.1 µM | [18] 33.9 µM
active: [6] 0.0621 µM | [14] 0.0376 µM | [15] 0.408 µM

O=C1OC[C@@H]2Cc3c([nH]c4ccccc34)[C@@H](c3cc(O)c(O)c(O)c3)N12
inactive: [1] 2.69 µM | [2] 34.9 µM | [3] 18.9 µM | [4] 2.72 µM | [5] 37 µM | [6] 25 µM | [7] 27.5 µM | [8] 20.7 µM | [9] 3.29 µM | [10] 21.3 µM | [11] 44.5 µM | [12] 23.4 µM | [13] 31.2 µM | [14] 41.5 µM | [15] 13.5 µM | [16] 31 µM | [17] 13.9 µM | [18] 21.8 µM

Cn1c2ccc(C3=NCCN3)cc2c2cc(C3=NCCN3)ccc21
active: [2] 0.0463 µM | [4] < 0.01 µM | [12] 0.724 µM
inactive: [1] 61.8 µM | [3] 34.3 µM | [5] 7.89 µM | [6] 24.5 µM | [7] 24.6 µM | [8] 41.2 µM | [9] 78.5 µM | [10] 17.6 µM | [11] 17 µM | [13] 37.9 µM | [14] 60.3 µM | [15] 30.1 µM | [16] 7.82 µM | [17] 18.2 µM | [18] > 100 µM

COc1cc2c(cc1OCCCC(=O)Nc1cc(C(=O)Nc3cc(C(=O)Nc4cc(C(=O)NCCCN(C)C)n(C)n4)n(C)c3)n(C)c1)N=CC1CCCN1C2=O (stereo unspecified)
inactive: [1] 21 µM | [2] 27.9 µM | [3] 19.8 µM | [4] 2.52 µM | [5] 48.5 µM | [6] 6.38 µM | [7] 25.7 µM | [8] 34.5 µM | [9] 23.9 µM | [10] 20.6 µM | [11] 74 µM | [12] 21.2 µM | [13] 17.1 µM | [14] 21 µM | [15] 25.1 µM | [16] 20.3 µM | [17] 3.76 µM | [18] 39.8 µM
